Data taken from PubChem BioAssay AID2060617 (Molecular Pharmacology Branch, DTP, NCI, 2025).
Several values for one entry are separate records, joined by “and”; a condition that tells them apart may be missing. Equal entries are not always repeated.

Tested on: 485368-065-R4-J2-PDC spheroids with HUVEC/MSC, viability
Test: Anticancer human tumor 485368-065-R4-J2-PDC patient-derived pancreatic carcinoma cell line growth inhibition [CLK]
Conditions: for viability, T/C: stronger effect = lower value; active = viability on the fitted dose curve at most 10% of control; inactive = the rest
How it was run: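 Multi-cell-type spheroids combined patient-derived tumor cells with HUVEC endothelial cells and human mesenchymal stem cells. Paired agents were dosed in half-log steps down from about clinical Cmax, or from 10 microM where Cmax was unknown.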

[1] = curve of first compound, second compound 0.0316 µM
[2] = curve of first compound, second compound 0.1 µM
[3] = curve of first compound, second compound 0.316 µM
[4] = curve of first compound, second compound 1 µM
[5] = curve of first compound, second compound 3.16 µM
[6] = curve of first compound, second compound 10 µM
[7] = second compound 0.0316 µM, first compound 0.0316 µM
[8] = second compound 0.0316 µM, first compound 0.1 µM
[9] = second compound 0.0316 µM, first compound 0.316 µM
[10] = second compound 0.0316 µM, first compound 1 µM
[11] = second compound 0.1 µM, first compound 0.0316 µM
[12] = second compound 0.1 µM, first compound 0.1 µM
[13] = second compound 0.1 µM, first compound 0.316 µM
[14] = second compound 0.1 µM, first compound 1 µM
[15] = second compound 0.316 µM, first compound 0.0316 µM
[16] = second compound 0.316 µM, first compound 0.1 µM
[17] = second compound 0.316 µM, first compound 0.316 µM
[18] = second compound 0.316 µM, first compound 1 µM
[19] = second compound 1 µM, first compound 0.0316 µM
[20] = second compound 1 µM, first compound 0.1 µM
[21] = second compound 1 µM, first compound 0.316 µM
[22] = second compound 1 µM, first compound 1 µM
[23] = second compound 3.16 µM, first compound 0.0316 µM
[24] = second compound 3.16 µM, first compound 0.1 µM
[25] = second compound 3.16 µM, first compound 0.316 µM
[26] = second compound 3.16 µM, first compound 1 µM
[27] = second compound 10 µM, first compound 0.0316 µM
[28] = second compound 10 µM, first compound 0.1 µM
[29] = second compound 10 µM, first compound 0.316 µM
[30] = second compound 10 µM, first compound 1 µM
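Note: spheroids exposed to compounds for seven days.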
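Throughout, for viability, T/C: 100% = DMSO vehicle control wells.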

C=CC(=O)Nc1cc(Nc2nccc(-c3cn(C)c4ccccc34)n2)c(OC)cc1N(C)CCN(C)C + CNC(=O)c1ccc(Nc2nc(OC3CCCC3)c3c(-c4ccc5nc(C)oc5c4)c[nH]c3n2)c(OC)c1
inactive: viability, T/C (second compound 0.0316 µM, first compound 0.000949 µM) 84.6% | viability, T/C (second compound 0.0316 µM, first compound 0.003 µM) 90% | viability, T/C (second compound 0.0316 µM, first compound 0.00949 µM) 88.8% | viability, T/C (second compound 0.0316 µM, first compound 0.03 µM) 93.4% | viability, T/C (second compound 0.0316 µM, first compound 0.0949 µM) 101% | viability, T/C (second compound 0.0316 µM, first compound 0.3 µM) 87.4% | viability, T/C (second compound 0.1 µM, first compound 0.000949 µM) 90.1% | viability, T/C (second compound 0.1 µM, first compound 0.003 µM) 89% | viability, T/C (second compound 0.1 µM, first compound 0.00949 µM) 95.6% | viability, T/C (second compound 0.1 µM, first compound 0.03 µM) 90.1% | viability, T/C (second compound 0.1 µM, first compound 0.0949 µM) 92.2% | viability, T/C (second compound 0.1 µM, first compound 0.3 µM) 98.4% | viability, T/C (second compound 0.316 µM, first compound 0.000949 µM) 82% | viability, T/C (second compound 0.316 µM, first compound 0.003 µM) 85.1% | viability, T/C (second compound 0.316 µM, first compound 0.00949 µM) 81.6% | viability, T/C (second compound 0.316 µM, first compound 0.03 µM) 79.5% | viability, T/C (second compound 0.316 µM, first compound 0.0949 µM) 83% | viability, T/C (second compound 0.316 µM, first compound 0.3 µM) 78% | viability, T/C (second compound 1 µM, first compound 0.000949 µM) 78.4% | viability, T/C (second compound 1 µM, first compound 0.003 µM) 72.6% | viability, T/C (second compound 1 µM, first compound 0.00949 µM) 81% | viability, T/C (second compound 1 µM, first compound 0.03 µM) 79.4% | viability, T/C (second compound 1 µM, first compound 0.0949 µM) 73.5% | viability, T/C (second compound 1 µM, first compound 0.3 µM) 70.8% | viability, T/C (second compound 3.16 µM, first compound 0.000949 µM) 69.4% | viability, T/C (second compound 3.16 µM, first compound 0.003 µM) 70.9% | viability, T/C (second compound 3.16 µM, first compound 0.00949 µM) 66.6% | viability, T/C (second compound 3.16 µM, first compound 0.03 µM) 68.4% | viability, T/C (second compound 3.16 µM, first compound 0.0949 µM) 66.8% | viability, T/C (second compound 3.16 µM, first compound 0.3 µM) 68.7% | viability, T/C (second compound 10 µM, first compound 0.000949 µM) 66.5% | viability, T/C (second compound 10 µM, first compound 0.003 µM) 67.6% | viability, T/C (second compound 10 µM, first compound 0.00949 µM) 70.1% | viability, T/C (second compound 10 µM, first compound 0.03 µM) 67.3% | viability, T/C (second compound 10 µM, first compound 0.0949 µM) 68.9% | viability, T/C (second compound 10 µM, first compound 0.3 µM) 58.6%
> 0.3 µM: IC50 [1] | IC50 [2] | IC50 [3] | IC50 [4] | IC50 [5] | IC50 [6]

CNC(=O)c1ccc(Nc2nc(OC3CCCC3)c3c(-c4ccc5nc(C)oc5c4)c[nH]c3n2)c(OC)c1
> 10 µM: IC50 (compound alone, run of 08/15/2023)
inactive: viability, T/C (compound 0.0316 µM) 91.6% [middle of 12 runs] | viability, T/C (compound 0.1 µM) 96.7% [middle of 12 runs] | viability, T/C (compound 0.316 µM) 82.6% [middle of 12 runs] | viability, T/C (compound 1 µM) 70.9% [middle of 12 runs] | viability, T/C (compound 3.16 µM) 71.5% [middle of 12 runs] | viability, T/C (compound 10 µM) 76.5% [middle of 12 runs]

CCN1CCN(Cc2ccc(Nc3ncc(F)c(-c4cc(F)c5nc(C)n(C(C)C)c5c4)n3)nc2)CC1
> 1 µM: IC50 (curve of compound)
inactive: viability, T/C (compound 0.00316 µM) 91.1% and 106% | viability, T/C (compound 0.01 µM) 114% and 96.1% | viability, T/C (compound 0.0316 µM) 115% and 116% | viability, T/C (compound 0.1 µM) 140% and 113% | viability, T/C (compound 0.316 µM) 128% and 129% | viability, T/C (compound 1 µM) 117% and 116%

CCN1CCN(Cc2ccc(Nc3ncc(F)c(-c4cc(F)c5nc(C)n(C(C)C)c5c4)n3)nc2)CC1 + CN1CCN(c2cc(C(=O)Nc3cc4cc(-c5cnn(C)c5)ccc4cn3)ccn2)CC1
< 0.00316 µM: IC50 [4] | IC50 [5] | IC50 [6]
active: viability, T/C (second compound 1 µM, first compound 0.00316 µM) 0.99% | viability, T/C (second compound 1 µM, first compound 0.01 µM) 0.79% | viability, T/C [19] 1.5% | viability, T/C [20] 1.72% | viability, T/C [21] 3.79% | viability, T/C [22] 6.61% | viability, T/C (second compound 3.16 µM, first compound 0.00316 µM) 1.45% | viability, T/C (second compound 3.16 µM, first compound 0.01 µM) 1.98% | viability, T/C [23] 1.44% | viability, T/C [24] 3.25% | viability, T/C [25] 3.87% | viability, T/C [26] 6.47% | viability, T/C (second compound 10 µM, first compound 0.00316 µM) 1.45% | viability, T/C (second compound 10 µM, first compound 0.01 µM) 1.41% | viability, T/C [27] 2.59% | viability, T/C [28] 1.89% | viability, T/C [29] 2.62% | viability, T/C [30] 3.7%
> 1 µM: IC50 [1] | IC50 [2] | IC50 [3]
inactive: viability, T/C (second compound 0.0316 µM, first compound 0.00316 µM) 94.5% | viability, T/C (second compound 0.0316 µM, first compound 0.01 µM) 116% | viability, T/C [7] 110% | viability, T/C [8] 138% | viability, T/C [9] 132% | viability, T/C [10] 120% | viability, T/C (second compound 0.1 µM, first compound 0.00316 µM) 103% | viability, T/C (second compound 0.1 µM, first compound 0.01 µM) 112% | viability, T/C [11] 113% | viability, T/C [12] 113% | viability, T/C [13] 126% | viability, T/C [14] 109% | viability, T/C (second compound 0.316 µM, first compound 0.00316 µM) 79% | viability, T/C (second compound 0.316 µM, first compound 0.01 µM) 76.1% | viability, T/C [15] 79.3% | viability, T/C [16] 78.9% | viability, T/C [17] 66.8% | viability, T/C [18] 60.7%

C#Cc1c(F)ccc2cc(O)cc(-c3ncc4c(N5CC6CCC(C5)N6)nc(OCC56CCCN5CC(F)C6)nc4c3F)c12 (centres undefined) + CNC(=O)c1ccc(Nc2nc(OC3CCCC3)c3c(-c4ccc5nc(C)oc5c4)c[nH]c3n2)c(OC)c1
inactive: viability, T/C [7] 103% | viability, T/C [8] 115% | viability, T/C [9] 90.3% | viability, T/C [10] 102% | viability, T/C (second compound 0.0316 µM, first compound 3.16 µM) 104% | viability, T/C (second compound 0.0316 µM, first compound 10 µM) 108% | viability, T/C [11] 96.1% | viability, T/C [12] 99.8% | viability, T/C [13] 108% | viability, T/C [14] 98.4% | viability, T/C (second compound 0.1 µM, first compound 3.16 µM) 103% | viability, T/C (second compound 0.1 µM, first compound 10 µM) 108% | viability, T/C [15] 91.4% | viability, T/C [16] 86.5% | viability, T/C [17] 96.7% | viability, T/C [18] 87% | viability, T/C (second compound 0.316 µM, first compound 3.16 µM) 75.8% | viability, T/C (second compound 0.316 µM, first compound 10 µM) 70.3% | viability, T/C [19] 82.8% | viability, T/C [20] 79.4% | viability, T/C [21] 80.3% | viability, T/C [22] 71.5% | viability, T/C (second compound 1 µM, first compound 3.16 µM) 68.8% | viability, T/C (second compound 1 µM, first compound 10 µM) 52.3% | viability, T/C [23] 77.5% | viability, T/C [24] 72.5% | viability, T/C [25] 77.1% | viability, T/C [26] 73.2% | viability, T/C (second compound 3.16 µM, first compound 3.16 µM) 59.4% | viability, T/C (second compound 3.16 µM, first compound 10 µM) 45% | viability, T/C [27] 74.7% | viability, T/C [28] 73.1% | viability, T/C [29] 68.5% | viability, T/C [30] 67.7% | viability, T/C (second compound 10 µM, first compound 3.16 µM) 57% | viability, T/C (second compound 10 µM, first compound 10 µM) 43.1%
5.79 µM: IC50 [6]
> 10 µM: IC50 [1] | IC50 [2] | IC50 [3] | IC50 [4]
6.95 µM: IC50 [5]

CC1(C)CCC(CN2CCN(c3ccc(C(=O)NS(=O)(=O)c4ccc(NCC5CCOCC5)c([N+](=O)[O-])c4)c(Oc4cnc5[nH]ccc5c4)c3)CC2)=C(c2ccc(Cl)cc2)C1
7.56 µM and 7.07 µM: IC50 (curve of compound)
inactive: viability, T/C (compound 0.0316 µM) 94.5% and 89% | viability, T/C (compound 0.1 µM) 101% and 106% | viability, T/C (compound 0.316 µM) 98.6% and 95% | viability, T/C (compound 1 µM) 100% and 93.7% | viability, T/C (compound 3.16 µM) 120% and 119% | viability, T/C (compound 10 µM) 33.1% and 28%

Nc1ccn(C2OC(CO)C(O)C2(F)F)c(=O)n1 (centres undefined)
< 0.0316 µM and 0.0477 µM: IC50 (curve of compound)
inactive: viability, T/C (compound 0.0316 µM) 46.4% and 56.8% | viability, T/C (compound 0.1 µM) 30.6% and 37.9% | viability, T/C (compound 0.316 µM) 29.7% and 32.5% | viability, T/C (compound 1 µM) 31.6% and 32.8% | viability, T/C (compound 3.16 µM) 31.5% and 31.4% | viability, T/C (compound 10 µM) 26.7% and 30.9%
